Assay results as given in patent US20150291597A1, “NOVEL ORALLY BIOAVAILABLE BREATHING CONTROL MODULATING COMPOUNDS, AND METHODS OF USING SAME” (Galleon Pharmaceuticals, Inc., priority 2012, published 2015).
“Also recorded” adds a separate entry of the source. Where a name gives a salt, the structure may show the parent alone.

Columns and labels:
[1] = Pharmacokinetics and oral bioavailability in the rat (IV and PO dosing, plasma LC-MS/MS); format: in vivo, Sprague-Dawley rats; details: Sprague-Dawley, oral versus intravenous dosing
Description: Sprague-Dawley rats (200-300 g) were fed a standard laboratory rodent diet and housed in individual cages on a 12-hour light and 12-hour dark cycle with room temperature maintained at 22±3° C. and relative humidity at 50±20%. Rats were fasted overnight before dosing, with food returned after the 6 hour blood samples were obtained. Bedding was removed until after the 6 hour blood samples were obtained. Water was provided ad libitum throughout the study.
Dosing solution of test compound was prepared in desired oral formulation for oral administration via gavage needle at 10-30 mg/kg (10 mL/kg) to three or four rats. All blood samples (250 uL per sample) were taken via jugular vein or femoral vein at 0 (predose), 15, and 30 min and 1, 2,4, 6, 8, and 24 h after oral dosing. […]
Plasma samples (incurred study samples, calibration standards, quality controls) were normally prepared as follows. […] Calibration standards were typically prepared in the range of 2 ng/ml to 10 μg/mL for quantitation. […]
All pharmacokinetic parameters were determined based on a non-compartmental approach using WinNonlin software (Pharsight, Version 5.1). The terminal elimination half-life (t1/2) was calculated as ln2/λz using the slope (λz) from linear regression analysis of the terminal phase of the plasma concentration-time curve on a semi-log scale. […]

anesthetized rats = assay: Anesthetized rat spirometry screening assay (respiratory rate, tidal volume, minute volume; IV bolus); format: in vivo; details: 0.3 mg/kg IV bolus
Source text: Anesthetized rats provide a quick method of screening compounds for respiratory and cardiovascular activity. In contrast to the conscious rat model, this model offers an experimental set up with less variation in the baseline cardiovascular and respiratory measures. Compounds screened in this assay may be examined in a conscious rat model.
Rats were initially anesthetized with 3% isoflurane (inhaled) and femoral artery and vein cannulas were surgically inserted. Once cannulated, the rats were transitioned to urethane anesthesia (1.5 g/kg; i.v.) and a tracheal cut-down was performed. After placing the tracheal cannula, it was connected to a pneumotach to record respiratory airflow from which respiratory rate (RR), tidal volume (VT), and their product minute volume were derived. After the surgical preparation was complete, animals were allowed to stabilize for 30 minutes while respiratory rate, tidal volume, minute volume, blood pressure and heart rate were recorded continuously. Arterial blood gases (ABG) were obtained from arterial blood collected from the femoral artery. ABG measurements were taken before and 6 minutes after vehicle and each dose of compound administered. Compounds being screened were administered via bolus injections through the venous cannula followed by a saline flush (total time of administration is approximately 30 seconds), and the animal was monitored for at least 6 minutes for changes in cardiovascular efforts. Compounds were prepared in formulations identified to ensure optimal solubility. As such, vehicle controls were matched for the formulation of each compound tested. Dosing of the compound being screened was 0.1 and 0.3 mg/kg. The next dose was not administered until all cardiovascular and respiratory measures had returned to baseline levels. The positive control compounds used were N-[4,6-di-(n-propylamino)-[1,3,5]triazin-2-yl]-O,N-dimethyl-hydroxylamine or N-[2,6-di-(n-propylamino)-[1,3]pyrimidin-4-yl]-O,N-dimethyl-hydroxylamine, both administered at the end of each screening experiment (0.3 mg/kg dose) to validate the experiment and also to serve as a measure with which the compound being screened could be compared.
Data were analyzed by collecting cardiovascular and respiratory data in 30 second averages (BINs). Data were plotted 2 minutes before challenge and then 6 minutes after challenge.
FIGS. 2A-2F summarize the effects of individual compounds on peak minute ventilation (increase in VE), overall increase in 2 minute area under the curve (AUC) which is a cumulative measure of effect, along with compound stability (half-life) in rat and human microsomes.

carotid body = assay: Carotid sinus nerve transection (CSNTx) in urethane anesthetized rats, minute volume; format: in vivo, adult male Sprague Dawley rats
Description: The objective of this study was to assess the role of carotid body sinus nerve activity on ventilation, as measured by minute volume, in rats treated with compounds of this invention, such as Compound 5b, versus a saline-treated group. Urethane anesthetized adult male Sprague Dawley rats and tracheal spirometry (pneumotachometry) techniques were used (Example 56). Vehicle (saline) and Compound 5b (0.1 and 0.3 mg/kg) were administered as IV boluses to 5 rats. The carotid sinus nerves were isolated in the neck and transected thereby denervating both carotid bodies. Vehicle and Compound 5b were re-administered IV. Animals were exposed to low inspired O2 (hypoxia) to confirm functionally complete nerve transections. The change in minute volume ΔVE (% of baseline above baseline) in response to saline/Compound 5b before and after carotid body denervation was measured.

[2] = Solubility of the hydrogen sulfate salt in solvents; format: physicochemical
[3] = test system: rats chronically treated with morphine; assay: Apnea, sleep architecture and ventilatory response in rats chronically treated with morphine; format: in vivo, Adult male lean Zucker rats; details: 7 mg/kg PO, versus vehicle
Description: The objective of this study was to quantify the effects of select compounds of this invention on apnea, ventilation and sleep structure in a rat model. The study consisted of two treatment conditions: (1) chronic morphine and test compound, such as Compound 5b administered orally (7 mg/kg, PO), and (2) chronic morphine and oral vehicle. Adult male lean Zucker rats were anesthetized for electroencephalogram (EEG) and electromyogram (EMG) telemeter implantation. At least 1 week was permitted post-surgery before animals were used further. Morphine sulfate was added to the drinking water of singly housed rats beginning with 0.1 mg/ml morphine and increasing the concentration in increments so that a final concentration of 0.6 mg/ml was achieved within 2 weeks. All respiratory measurements were made while animals were unrestrained in whole-body plethysmography chambers to permit animals to sleep and move freely. To avoid eliciting withdrawal, morphine water was continuously available during each plethysmography experiment. Minute volume and the number of central sleep apneas (CSA) were measured during all treatment conditions. A period of at least 1 to 1.5 h was permitted for animals to acclimate to the chamber before data collection began. The biopotential telemeters and their receivers were placed directly under the plethysmographic chambers and were used to continuously to capture EEG, EMG, and body temperature signals. Only data collected between the hours of 10 am to 4:30 pm were used in the final analysis to control for the effects of circadian rhythm on breathing.
Compound 5b (7 mg/kg) or an equivalent volume of vehicle was administered via an oral gavage tube at 12 pm. Data collected between 10 am and 12 pm represented baseline (pre-drug) conditions. Data collected between 12 pm and 4:30 pm represented post-drug conditions. Analyses of the EEG and EMG waveforms for the purpose of staging sleep-wake behavior in rats as awake, NREM sleep, and REM sleep were based on previous sleep studies involving rodents. Central apneas were defined as a respiratory cycle period that was more than or equal to twice the average cycle period during baseline recordings, which is consistent with how others have defined central apneas in rodents. Percent time in each sleep-wake state, minute volume, and central sleep apnea counts were compared between treatment groups using a two-way ANOVA (factors: drug treatment and time). Breathing data during wakefulness was not analyzed because movement prevents measurement of accurate volumes when using whole-body plethysmography. When differences were detected with ANOVA, Student-Neuman-Keuls post hoc tests were run for all main effects and interactions. Differences were considered significant when p<0.05. Values are expressed as means±SE.

rat = assay: Minute volume and mean blood pressure in the rat upon oral dosing (plethysmography, telemetry); format: in vivo, Male Sprague Dawley rats; details: 20 mg/kg PO
Description: Compounds were administered orally to rat and evaluated for effects on ventilatory and cardiovascular parameters.
Male Sprague Dawley rats (0.30-0.38 kg, n=4) were surgically implanted with ECG/blood pressure telemeters (Telemetry Research, Inc., Auckland, New Zweland) prior to data collection. The animals were acclimated to plethysmography chambers for a minimum period of 60 minutes. After this time, test compound (20 mg/kg, PO) or vehicle (0.9% saline) was administered by oral gavage. Respiratory and cardiovascular data were collected immediately thereafter for a period of 3 h using plethysmography (Buxco, Inc.) and telemetry (LabChart data acquisition software, AD instruments, Inc.). Each rat received test compound and vehicle during the course of the study and thus each animal served as its own control. Vehicle effects were subtracted from drug response (Drug-Veh) and the difference was reported as a mean percent (%) change over time±SE.

SMILES | bioavailability [1] | duration of the increase in minute ventilation (anesthetized rats) | increase in minute ventilation above baseline values (anesthetized rats) | increase in respiratory rate (anesthetized rats) | increase in tidal volume (anesthetized rats) | minute volume prior to carotid body denervation (carotid body; 0.1 and 0.3 mg/kg IV bolus) | ventilatory response after carotid sinus nerve transection (carotid body; 0.1 and 0.3 mg/kg IV bolus) | ventilatory response after SHAM surgery (carotid body; IV bolus) | solubility in MeOH ([2]; MeOH) | solubility in water ([2]; water) | central apneas during NREM sleep, percent change from baseline (pre-treatment) [3] | NREM minute volume (VE) ([3]; hydrogen sulfate) | REM minute volume ([3]; hydrogen sulfate) | frequency of central apneas during NREM sleep ([3]; hydrogen sulfate) | frequency of central apneas during REM sleep ([3]; hydrogen sulfate) | duration of the increase in minute ventilation (rat) | increase in minute ventilation compared to baseline (rat) | effect on mean blood pressure (rat; during the period of increased ventilation)
C#CCNc1nc(NCCC)nc(N(C)OC)n1.Cl [Compound 5a, O,N-Dimethyl-N-[4-(n-propylamino)-6-(prop-2-ynylamino)-[1,3,5]triazin-2-yl]-hydroxylamine hydrochloride] | 36% | approximately 2 minutes | up to 143% | up to 42% | up to 73% |  |  |  |  |  |  |  |  |  |  |  |  | 
C#CCNc1nc(NCCC)nc(N(C)OC)n1 [Compound 5b, O,N-Dimethyl-N-[4-(n-propylamino)-6-(prop-2-ynylamino)-[1,3,5]triazin-2-yl]-hydroxylamine hydrogen sulfate] |  |  |  |  |  | dose-dependently increased minute volume | completely abolished the ventilatory response | no effect on the ventilatory response | freely soluble | freely soluble | percent change (decrease) in apnea frequency was present | no statistically significant effects; also recorded: trend for an initial increase in minute volume between 0 to 60 min post-dose; also recorded: no discernible effect | no visible effects | decreased apnea frequency at 120 min and 150 min post-gavage compared to vehicle; also recorded: decreased apnea frequency during NREM sleep compared to vehicle and the pre-treatment (baseline) values; also recorded: significantly reduces | did not visibly alter; also recorded: no visible effect; also recorded: does not reduce | 120 min | approximately 50% | no significant effect
